One test addresses GSPT1 (Homo sapiens, UniProt P15170+Q96SW2). Briefly: HiBiT degradation assay, GSPT1, Procedure A. Type of test: cell-based. Set-up: HiBit-GSPT1 KI HEK293(LgBit) Cells; host or cells: HEK293(LgBit) knock-in cells. The procedure, abridged:
(§1)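 Luminescence from HiBiT lytic detection reports remaining tagged protein after cells sit six hours at 37° C with compound across ten concentrations (10 μM down to 0.005 μM, 0.1% DMSO). A 4-parameter curve fit gives DC50 and Ymin.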
(HiBiT is a short tag that completes a luciferase, so light tracks the accessible tagged protein.)

A further test concerns the target T1, CK1α (Homo sapiens, UniProt P48729+Q96SW2).
T1 construct: CSNK1A1-HiBit KI HEK293(LgBit) Cells; host or cells: HEK293(LgBit) knock-in cells
Briefly: HiBiT degradation assay, CK1α, Procedure A. The format is cell-based. Summed up:
as §1

T1 sequence (P48729 whole entry): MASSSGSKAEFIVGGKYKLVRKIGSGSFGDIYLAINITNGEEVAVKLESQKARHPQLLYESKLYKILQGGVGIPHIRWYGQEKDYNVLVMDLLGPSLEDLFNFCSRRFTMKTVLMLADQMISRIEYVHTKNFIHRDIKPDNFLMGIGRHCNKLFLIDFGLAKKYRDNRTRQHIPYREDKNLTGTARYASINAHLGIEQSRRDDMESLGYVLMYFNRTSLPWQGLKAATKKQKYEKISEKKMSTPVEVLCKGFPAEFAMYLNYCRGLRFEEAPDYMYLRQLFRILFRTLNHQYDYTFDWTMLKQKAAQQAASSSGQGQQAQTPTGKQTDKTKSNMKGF
T1 sequence (Q96SW2 whole entry): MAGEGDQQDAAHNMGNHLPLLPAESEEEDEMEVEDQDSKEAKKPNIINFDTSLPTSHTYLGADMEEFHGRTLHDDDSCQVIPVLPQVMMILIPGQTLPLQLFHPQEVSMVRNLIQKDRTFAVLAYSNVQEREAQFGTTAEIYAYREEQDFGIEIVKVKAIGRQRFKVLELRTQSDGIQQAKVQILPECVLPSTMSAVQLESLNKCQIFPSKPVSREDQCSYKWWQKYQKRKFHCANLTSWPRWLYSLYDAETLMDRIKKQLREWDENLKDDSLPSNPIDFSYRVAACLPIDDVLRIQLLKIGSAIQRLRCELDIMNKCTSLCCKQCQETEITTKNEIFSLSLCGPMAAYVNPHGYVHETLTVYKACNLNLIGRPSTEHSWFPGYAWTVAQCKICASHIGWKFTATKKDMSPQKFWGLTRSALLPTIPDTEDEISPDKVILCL
T1 sequence (Q16531 whole entry partner): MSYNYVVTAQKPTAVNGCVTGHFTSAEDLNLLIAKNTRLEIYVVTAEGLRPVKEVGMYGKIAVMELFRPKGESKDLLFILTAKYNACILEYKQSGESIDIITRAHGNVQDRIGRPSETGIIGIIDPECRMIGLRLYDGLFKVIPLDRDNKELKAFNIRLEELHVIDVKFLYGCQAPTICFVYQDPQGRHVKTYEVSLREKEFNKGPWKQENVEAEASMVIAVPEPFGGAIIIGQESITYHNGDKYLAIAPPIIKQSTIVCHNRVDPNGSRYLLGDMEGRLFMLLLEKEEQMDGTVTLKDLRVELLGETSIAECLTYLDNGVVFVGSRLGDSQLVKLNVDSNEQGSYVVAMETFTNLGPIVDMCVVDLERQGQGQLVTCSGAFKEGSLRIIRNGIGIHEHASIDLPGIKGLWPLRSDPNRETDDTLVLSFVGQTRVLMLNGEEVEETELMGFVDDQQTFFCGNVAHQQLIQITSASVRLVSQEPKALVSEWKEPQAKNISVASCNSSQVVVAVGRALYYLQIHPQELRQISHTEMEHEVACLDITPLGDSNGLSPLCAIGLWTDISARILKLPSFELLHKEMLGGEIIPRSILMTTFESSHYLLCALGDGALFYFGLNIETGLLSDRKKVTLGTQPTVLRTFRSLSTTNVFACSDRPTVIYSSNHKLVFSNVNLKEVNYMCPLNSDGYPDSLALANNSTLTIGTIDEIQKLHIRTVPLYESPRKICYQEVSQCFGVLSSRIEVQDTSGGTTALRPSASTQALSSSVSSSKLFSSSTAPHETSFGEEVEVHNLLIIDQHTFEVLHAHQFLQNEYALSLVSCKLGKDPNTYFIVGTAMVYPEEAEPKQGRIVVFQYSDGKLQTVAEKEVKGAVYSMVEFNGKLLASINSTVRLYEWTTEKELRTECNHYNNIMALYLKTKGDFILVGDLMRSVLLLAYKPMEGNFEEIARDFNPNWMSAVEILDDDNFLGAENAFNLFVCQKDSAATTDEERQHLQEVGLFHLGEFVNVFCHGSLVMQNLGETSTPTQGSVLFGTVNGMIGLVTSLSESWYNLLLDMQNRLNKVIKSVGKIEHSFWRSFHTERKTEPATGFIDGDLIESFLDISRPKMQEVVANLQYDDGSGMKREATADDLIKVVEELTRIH
Chain of GSPT1 (P15170 whole entry): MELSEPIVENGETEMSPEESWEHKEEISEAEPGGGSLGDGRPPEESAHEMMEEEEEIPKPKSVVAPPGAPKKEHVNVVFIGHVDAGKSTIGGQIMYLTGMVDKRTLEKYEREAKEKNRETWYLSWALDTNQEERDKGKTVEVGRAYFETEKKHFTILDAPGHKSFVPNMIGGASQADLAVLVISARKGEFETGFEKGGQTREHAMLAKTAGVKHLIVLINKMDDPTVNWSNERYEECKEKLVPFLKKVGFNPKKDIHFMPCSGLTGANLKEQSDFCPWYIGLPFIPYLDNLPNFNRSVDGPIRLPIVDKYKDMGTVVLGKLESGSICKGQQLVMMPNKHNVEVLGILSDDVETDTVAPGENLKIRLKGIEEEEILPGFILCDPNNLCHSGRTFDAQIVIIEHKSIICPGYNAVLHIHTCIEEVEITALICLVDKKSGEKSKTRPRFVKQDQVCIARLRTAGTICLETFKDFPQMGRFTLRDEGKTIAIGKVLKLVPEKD
Chain of GSPT1 (Q96SW2 whole entry): as the sequence (Q96SW2 whole entry) above
Chain of GSPT1 (Q16531 whole entry partner): as the sequence (Q16531 whole entry partner) above

For orientation: DC50 means the concentration at which degradation of the target reaches its halfway point. `Cn1ncc(-c2ccc3c(c2)CN(C2CCC(=O)NC2=O)C3=O)c1-c1cc[nH]n1` (stereo not shown) [Example 469]: on GSPT1 (six hours), the DC50 was at least 25 nM and the “GSPT1 Ymin” value is on record as “F (F = >75-100% remaining)”. Moreover, at CK1α (six hours), the “CK1α Ymin” value is listed as “D (D = >10- 25% remaining)” and the DC50 was at least 25 nM.
As for `Cc1ccc(C#N)cc1-c1c(-c2ccc3c(c2)CN(C2CCC(=O)NC2=O)C3=O)ncn1C` (stereo not shown) [Example 243], on GSPT1 (six hours incubation), the DC50 was at least 25 nM and the “GSPT1 Ymin” value is listed as “F (F = >75-100% remaining)”. On CK1α (six hours incubation), the “CK1α Ymin” value was “E (E = >25-75% remaining)” and the DC50 is at least 25 nM.
For the molecule `COc1ccc(-c2c(-c3ccc4c(c3)CN(C3CCC(=O)NC3=O)C4=O)ncn2C)cc1Cl` (stereo not shown) [Example 276], on GSPT1 (six hours incubation), the DC50 was under 25 nM and the “GSPT1 Ymin” value was “F (F = >75-100% remaining)”. Besides, at CK1α (six hours incubation), the “CK1α Ymin” value is reported as “C (C = 0-10% remaining)” and the DC50 is under 25 nM.
Consider `Cc1ccc(-c2c(-c3ccc4c(c3)CN(C3CCC(=O)NC3=O)C4=O)cnn2C)cc1Cl` (stereo not shown) [Example 80], for which, at GSPT1 (six hours incubation), the DC50 is at least 25 nM and the “GSPT1 Ymin” value is “F (F = >75-100% remaining)”. Moreover, at CK1α (six hours incubation), the “CK1α Ymin” value is reported as “E (E = >25-75% remaining)” and the DC50 is under 25 nM.
For the molecule `Cn1cnc(-c2ccc3c(c2)CN(C2CCC(=O)NC2=O)C3=O)c1-c1cccc2c1OCC2` (stereo not shown) [Example 349], on GSPT1 (six hours incubation), the DC50 is under 25 nM and the “GSPT1 Ymin” value was “F (F = >75-100% remaining)”. In addition, on CK1α (six hours incubation), the “CK1α Ymin” value is reported as “C (C = 0-10% remaining)” and the DC50 is under 25 nM.
Turning to `Cn1ncc(-c2ccc3c(c2)CN(C2CCC(=O)NC2=O)C3=O)c1-c1cc2ccccc2[nH]1` (stereo not shown) [Example 380], at GSPT1 (six hours), the DC50 was at least 25 nM and the “GSPT1 Ymin” value is on record as “F (F = >75-100% remaining)”. Moreover, at CK1α (six hours), the “CK1α Ymin” value is given as “E (E = >25-75% remaining)” and the DC50 was under 25 nM.
For `Cn1ncc(-c2ccc3c(c2)CN(C2CCC(=O)NC2=O)C3=O)c1-c1cccc(F)c1` (stereo not shown) [Example 135], at GSPT1 (six hours incubation), the DC50 was at least 25 nM and the “GSPT1 Ymin” value is recorded as “F (F = >75-100% remaining)”. On CK1α (six hours incubation), the “CK1α Ymin” value was “E (E = >25-75% remaining)” and the DC50 was under 25 nM.
With `Cc1occc1-c1c(-c2ccc3c(c2)CN(C2CCC(=O)NC2=O)C3=O)cnn1C` (stereo not shown) [Example 364], on GSPT1 (six hours incubation), the DC50 was at least 25 nM and the “GSPT1 Ymin” value is recorded as “F (F = >75-100% remaining)”. In addition, at CK1α (six hours incubation), the “CK1α Ymin” value is on record as “D (D = >10- 25% remaining)” and the DC50 is at least 25 nM.
Turning to `Cc1cccc(-c2c(-c3ccc4c(c3)CN(C3CCC(=O)NC3=O)C4=O)cnn2C)c1F` (stereo not shown) [Example 106], at GSPT1 (six hours incubation), the DC50 is at least 25 nM and the “GSPT1 Ymin” value is “F (F = >75-100% remaining)”. Besides, on CK1α (six hours incubation), the “CK1α Ymin” value is on record as “E (E = >25-75% remaining)” and the DC50 is under 25 nM.
Consider `Cn1ncc(-c2ccc3c(c2)CN(C2CCC(=O)NC2=O)C3=O)c1-c1cnn(CC(F)F)c1` (stereo not shown) [Example 388], for which, on GSPT1 (six hours), the DC50 was at least 25 nM and the “GSPT1 Ymin” value was “F (F = >75-100% remaining)”. For the same molecule, on CK1α (six hours), the “CK1α Ymin” value is “E (E = >25-75% remaining)” and the DC50 was at least 25 nM.
As for `CN1N=CC(c2ccc3c(c2)CN(C2CCC(=O)NC2=O)C3=O)C1c1cnn(C2CC2)c1` (stereo not shown) [Example 376], on GSPT1 (six hours incubation), the DC50 is at least 25 nM and the “GSPT1 Ymin” value is “F (F = >75-100% remaining)”. Further, on CK1α (six hours incubation), the “CK1α Ymin” value is listed as “D (D = >10- 25% remaining)” and the DC50 was under 25 nM.
Regarding `Cn1ncc(-c2ccc3c(c2)CN(C2CCC(=O)NC2=O)C3=O)c1-c1ccccc1-c1ccccc1` (stereo not shown) [Example 145], on GSPT1 (six hours incubation), the DC50 was under 25 nM and the “GSPT1 Ymin” value was “F (F = >75-100% remaining)”. In addition, at CK1α (six hours incubation), the “CK1α Ymin” value is “C (C = 0-10% remaining)” and the DC50 is under 25 nM.
As for `Cn1ncc(-c2ccc3c(c2)CN(C2CCC(=O)NC2=O)C3=O)c1-c1cccc(F)c1Cl` (stereo not shown) [Example 108], at GSPT1 (six hours incubation), the 50% degradation concentration (DC50) is at least 25 nM and the “GSPT1 Ymin” value was “F (F = >75-100% remaining)”. For the same molecule, at CK1α (six hours incubation), the “CK1α Ymin” value is given as “E (E = >25-75% remaining)” and the DC50 is under 25 nM.

For the origin of these results see patent publication US20240158370A1, “CK1 alpha AND DUAL CK1 alpha / GSPT1 DEGRADING COMPOUNDS” (Innovo Therapeutics, Inc., priority 2022, published 2024).
